Measured values: patent US20170209445A1, “KINASE INHIBITORS” (Respivert Limited, priority 2014, published 2017)

What follows are compounds tested on PBMCs (assay: LPS-induced IL-8 release in PBMC cells). Conditions: Homo sapiens, LPS-stimulated PBMCs, read-out: IC50 Values for Inhibition of Cytokine Release PBMCs IL-8.
Assay type: cell-based
Experimental: Peripheral blood mononuclear cells (PBMCs) from healthy subjects are separated from whole blood using a density gradient (Lymphoprep, Axis-Shield Healthcare). The PBMCs are seeded in 96 well plates and treated with compounds at the desired concentration for 2 hours before addition of 1 ng/mL LPS (Escherichia Coli 0111:B4 from Sigma Aldrich) for 24 hours under normal tissue culture conditions (37° C., 5% CO2). The supernatant is harvested for determination of IL-8 and TNFα concentrations by sandwich ELISA (Duo-set, R&D systems) and read on the fluorescence microplate reader (Varioskan® Flash, ThermoFisher Scientific).
`C#Cc1cc(Nc2ncc3cc(-c4cc(C(=O)Nc5cc(C(C)(C)C)cc(NS(C)(=O)=O)c5OC)ccc4C)ccc3n2)cc(OCCOCCOCCOC)c1` [14(k), N-(5-(tert-Butyl)-2-methoxy-3-(methylsulfonamido)phenyl)-3-(2-((3-ethynyl-5-(2-(2-(2-methoxyethoxy)ethoxy)ethoxy)phenyl)amino)quinazolin-6-yl)-4-methylbenzamide] showed an IC50 of 16.7 nM. In the case of `COc1cc(Nc2ncc3cc(-c4cc(C(=O)Nc5cc(C(C)(C)C)cc(NS(C)(=O)=O)c5OC)ccc4C)ccc3n2)ccc1C(=O)NCCOCCOCCO` [14(v), 4-((6-(5-((5-(tert-Butyl)-2-methoxy-3-(methylsulfonamido)phenyl)carbamoyl)-2-methylphenyl)quinazolin-2-yl)amino)-N-(2-(2-(2-hydroxyethoxy)ethoxy)ethyl)-2-methoxybenzamide], the IC50 is reported as 4.4 nM. `COc1cc(Nc2ncc3cc(-c4cc(C(=O)Nc5cc(C(C)(C)C)cc(NS(C)(=O)=O)c5OC)ccc4C)ccc3n2)ccc1C(=O)NCCN1CCC(O)CC1` [14(ah), 4-((6-(5-((5-(tert-Butyl)-2-methoxy-3-(methylsulfonamido)phenyl)carbamoyl)-2-methylphenyl)quinazolin-2-yl)amino)-N-(2-(4-hydroxypiperidin-1-yl)ethyl)-2-methoxybenzamide] was tested, and the IC50 was 8 nM. In the case of `COc1cc(Nc2ncc3cc(-c4cc(C(=O)Nc5cc(C(C)(C)C)cc(NS(C)(=O)=O)c5OC)ccc4C)ccc3n2)ccc1C(=O)NCCN1CCCC1` [14(ak), 4-((6-(5-((5-(tert-Butyl)-2-methoxy-3-(methylsulfonamido)phenyl)carbamoyl)-2-methylphenyl)quinazolin-2-yl)amino)-2-methoxy-N-(2-(pyrrolidin-1-yl)ethyl)benzamide], the IC50 is reported as 14.8 nM. `COc1cc(Nc2ncc3cc(-c4cc(C(=O)Nc5cc(C(C)(C)C)cc(NS(C)(=O)=O)c5OC)ccc4C)ccc3n2)ccc1C(=O)NCCc1c[nH]cn1` [14(af), N-(2-(1H-Imidazol-4-yl)ethyl)-4-((6-(5-((5-(tert-butyl)-2-methoxy-3-(methylsulfonamido)-phenyl)carbamoyl)-2-methylphenyl)quinazolin-2-yl)amino)-2-methoxybenzamide] gave an IC50 of 13.2 nM. `COc1c(NC(=O)c2ccc(C)c(-c3ccc4nc(Nc5cc(C(=O)NCCN6CCOCC6)cc(C(F)(F)F)c5)ncc4c3)c2)cc(C(C)(C)C)cc1NS(C)(=O)=O` [14(u), N-(5-(tert-Butyl)-2-methoxy-3-(methylsulfonamido)phenyl)-4-methyl-3-(2-((3-((2-morpholinoethyl)carbamoyl)-5-(trifluoromethyl)phenyl)amino)quinazolin-6-yl)benzamide] showed an IC50 of 20.2 nM. With `COc1c(NC(=O)c2ccc(C)c(-c3ccc4nc(Nc5ccc(OS(C)(=O)=O)cc5)ncc4c3)c2)cc(C(C)(C)C)cc1NS(C)(=O)=O` [14(j), 4-((6-(5-((5-(tert-Butyl)-2-methoxy-3-(methylsulfonamido)phenyl)carbamoyl)-2-methylphenyl)quinazolin-2-yl)amino)phenyl methanesulfonate] the IC50 was 9.1 nM. `COc1c(NC(=O)c2ccc(C)c(-c3ccc4nc(Nc5cccc(C(=O)NCCN6CCOCC6)c5)ncc4c3)c2)cc(C(C)(C)C)cc1NS(C)(=O)=O` [14(d), N-(5-(tert-Butyl)-2-methoxy-3-(methylsulfonamido)phenyl)-4-methyl-3-(2-((3-((2-morpholinoethyl)carbamoyl)phenyl)amino)quinazolin-6-yl)benzamide] gave an IC50 of 8.3 nM. For `COc1cc(Nc2ncc3cc(-c4cc(C(=O)Nc5cc(C(C)(C)C)cc(NS(C)(=O)=O)c5OC)ccc4C)ccc3n2)ccc1C(=O)NCCS(C)(=O)=O` [14(ad), 4-((6-(5-((5-(tert-Butyl)-2-methoxy-3-(methylsulfonamido)phenyl)carbamoyl)-2-methylphenyl)quinazolin-2-yl)amino)-2-methoxy-N-(2-(methylsulfonyl)ethyl)benzamide], the IC50 was 7 nM. With `COc1cc(Nc2ncc3cc(-c4cc(C(=O)Nc5cc(C(C)(C)C)cc(NS(C)(=O)=O)c5OC)ccc4C)ccc3n2)cc(C(=O)O)c1` [14(o), 3-((6-(5-((5-(tert-Butyl)-2-methoxy-3-(methylsulfonamido)phenyl)carbamoyl)-2-methylphenyl)quinazolin-2-yl)amino)-5-methoxybenzoic acid] the IC50 was 28.4 nM. Compound `COc1cc(Nc2ncc3cc(-c4cc(C(=O)Nc5cc(C(C)(C)C)cc(NS(C)(=O)=O)c5OC)ccc4C)ccc3n2)ccc1C(=O)NCCN1CCOCC1` [14(am), 4-((6-(5-((5-(tert-Butyl)-2-methoxy-3-(methylsulfonamido)phenyl)carbamoyl)-2-methylphenyl)quinazolin-2-yl)amino)-2-methoxy-N-(2-morpholinoethyl)benzamide] has an IC50 of 19.5 nM. Compound `COc1c(NC(=O)c2ccc(C)c(-c3ccc4nc(Nc5cccc(P(C)(C)=O)c5)ncc4c3)c2)cc(C(C)(C)C)cc1NS(C)(=O)=O` [14(h), N-(5-(tert-Butyl)-2-methoxy-3-(methylsulfonamido)phenyl)-3-(2-((3-(dimethylphosphoryl)phenyl)amino)quinazolin-6-yl)-4-methylbenzamide] has an IC50 of 9.4 nM. `COc1cc(Nc2ncc3cc(-c4cc(C(=O)Nc5cc(C(C)(C)C)cc(NS(C)(=O)=O)c5OC)ccc4C)ccc3n2)ccc1C(=O)NCCN1CCN(CCO)CC1` [Example 13] gave an IC50 of 6.7 nM. With `COc1cc(Nc2ncc3cc(-c4cc(C(=O)Nc5cc(C(C)(C)C)cc(NS(C)(=O)=O)c5OC)ccc4C)ccc3n2)ccc1C(=O)NCCN1CCCOCC1` [14(y), N-(2-(1,4-Oxazepan-4-yl)ethyl)-4-((6-(5-((5-(tert-butyl)-2-methoxy-3-(methylsulfonamido)-phenyl)carbamoyl)-2-methylphenyl)quinazolin-2-yl)amino)-2-methoxybenzamide] the IC50 was 4.6 nM. `COc1cc(Nc2ncc3cc(-c4cc(C(=O)Nc5cc(C(C)(C)C)cc(NS(C)(=O)=O)c5OC)ccc4C)ccc3n2)ccc1C(=O)NCCn1ccnc1C` [14(ae), 4-((6-(5-((5-(tert-Butyl)-2-methoxy-3-(methylsulfonamido)phenyl)carbamoyl)-2-methyl-phenyl)quinazolin-2-yl)amino)-2-methoxy-N-(2-(2-methyl-1H-imidazol-1-yl)ethyl)benzamide] was tested, and the IC50 was 6.5 nM. Work on `COc1cc(Nc2ncc3cc(-c4cc(C(=O)Nc5cc(C(C)(C)C)cc(NS(C)(=O)=O)c5OC)ccc4C)ccc3n2)cc(S(=O)(=O)N(C)CCCN2CCOCC2)c1` [14(e), N-(5-(tert-Butyl)-2-methoxy-3-(methylsulfonamido)phenyl)-3-(2-((3-methoxy-5-(N-methyl-N-(3-morpholinopropyl)sulfamoyl)phenyl)amino)quinazolin-6-yl)-4-methylbenzamide] yielded an IC50 of 20.6 nM. `C#Cc1cc(Nc2ncc3cc(-c4cc(C(=O)Nc5cc(C(C)(C)C)cc(NS(C)(=O)=O)c5OC)ccc4C)ccc3n2)cc(C(=O)NCCOC)c1` [14(n), N-(5-(tert-Butyl)-2-methoxy-3-(methylsulfonamido)phenyl)-3-(2-((3-ethynyl-5-((2-methoxyethyl)carbamoyl)phenyl)amino)quinazolin-6-yl)-4-methylbenzamide] was tested, and the IC50 was 11 nM. `C#Cc1cc(Nc2ncc3cc(-c4cc(C(=O)Nc5cc(C(C)(C)C)cc(NS(C)(=O)=O)c5OC)ccc4C)ccc3n2)cc(C(=O)NCCOCCOC)c1` [14(m), N-(5-(tert-Butyl)-2-methoxy-3-(methylsulfonamido)phenyl)-3-(2-((3-ethynyl-5-((2-(2-methoxyethoxy)ethyl)carbamoyl)phenyl)amino)quinazolin-6-yl)-4-methylbenzamide] was tested, and the IC50 was 10.4 nM.
